Measured values: US20230391781A1, “MALT1 MODULATORS AND USES THEREOF” (Rheos Medicines, Inc., priority 2020, published 2023)
Converted amounts (≈) assume the structure as drawn.

What was measured:
full length MALT1 = full length MALT1 (Homo sapiens (Human), UniProt Q9UDY8); test: MALT1 Biochemical Assay; details: 15 nM enzyme, 30 μM peptide substrate Ac-Leu-Arg-Ser-Arg-Rh110-dPro, 30 min pre-incubation, 60 min reaction; mean value if tested more than once
Summary of the method: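 Full-length human MALT1 was pre-incubated with compound for 30 min, then cleaved a fluorogenic peptide for 60 min in 50 mM Hepes pH 7.5 with 0.8 M sodium citrate and 1 mM DTT. The reaction was quenched with 10 mM iodoacetate and fluorescence was read at 485/520 nm. IC50 came from four-parameter logistic fits of percent inhibition.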

[1] = High Throughput Dialysis (HTD) Human Plasma Protein Binding Assay; format: in vitro ADME; details: pooled human plasma, pH 7.4, equilibrium dialysis, 37° C., read-out: Human PPB (% Unbound)
Method: Human plasma protein binding of various compounds of formula (I) were evaluated using the equilibrium dialysis method described herein.
The dialysis membrane strips (HTD % a/b, catalog number 1101, HTDialysis LLC, Gales Ferry, CT, USA) were soaked in ultra-pure water at room temperature for approximately 1 hour. Each membrane strip containing 2 membranes was separated and soaked in 20:80 ethanol/water (v/v) for approximately 20 minutes, after which they were ready for use or were stored in the solution at 2-8° C. for up to a month. Prior to the experiment, the membrane was rinsed three times and soaked for 20 minutes in ultra-pure water.
On the day of experiment, the human plasma (BiolVT, catalog number […], sodium heparin or EDTA-K2 anticoagulant, multiple individuals pooled) was thawed by running under cold tap water and centrifuged at 3220 rpm for 5 minutes to remove any clots. The pH value of the resulting plasma was confirmed to be 7.0-8.0.
The test compounds and warfarin control (Stru Chem, catalog number SC-16139) were dissolved in dimethyl sulfoxide (DMSO) to obtain 10 mM stock solutions. DMSO working solutions were prepared at 400 μM. To prepare the loading matrix, the compound working solutions (5 μL) were added in a 1:200 ratio to blank human plasma (995 μL) and mixed thoroughly.
The time zero (T0) samples to be used for recovery determination were prepared as follows: 50 μL aliquots of loading matrix were transferred in triplicate to the sample collection plate. The samples were immediately matched with opposite blank buffer (basic solution (14.2 g/L Na2HPO4 and 8.77 g/L NaCl in deionized water) titrated with acidic solution (15.6 g/L NaH2PO4·2H2O and 8.77 g/L NaCl in deionized water) to pH 7.4±0.1) to obtain a final volume of 100 μL of 1:1 matrix/dialysis buffer (v/v) in each well. 500 μL stop solution (200 ng/mL tolbutamide and 200 ng/mL labetalol in acetonitrile) were added to these TO samples. They were then stored at 2-8° C. for further processing along with other post-dialysis samples.
To load the dialysis device (96-well equilibrium dialysis plate, model 96b, catalog number 1006. HTDialysis LLC, Gales Ferry, CT, USA), an aliquot of 150 μL of the loading matrix was transferred to the donor side of each dialysis well in triplicate, and 150 μL of the dialysis buffer was loaded to the receiver side of the well. The dialysis plate was placed in a humidified incubator at 37° C. with 5% CO2 on a shaking platform that rotated slowly (about 100 rpm) for 4 hours.
At the end of the dialysis, aliquots of 50 μL of the samples were taken from both the buffer side and the matrix side of the dialysis device. These samples were transferred into new 96-well plates (polypropylene, 2.2 mL/well, catalog number DWP-22-96-SQ-U-C-L. Apricot). Each sample was mixed with an equal volume of opposite blank matrix (buffer or matrix) to reach a final volume of 100 μL of 1:1 matrix/dialysis buffer (v/v) in each well. All samples were further processed by adding 500 μL of stop solution containing internal standards. The mixture was vortexed and centrifuged at 4000 rpm for about 20 minutes. An aliquot of 100 μL of supernatant of all the samples was then removed for LC-MS/MS analysis. Test compound concentrations in matrix and buffer samples were expressed as peak area ratios (PAR) of analyte/internal standard (no standard curve).
The single blank samples were prepared by transferring 50 μL of blank matrix to a 96 well plate (polypropylene. 2.2 mL/well, catalog number DWP-22-96-SQ-U-C-L, Apricot) and adding 50 μL of blank PBS buffer to each well. The blank plasma must match the species of plasma used in the plasma side of the well. Then the matrix-matched samples were further processed by adding 500 μL of stop solution containing internal standards, following the same sample processing method as the dialysis samples. […]

[2] = system: IL-2 in Jurkat (ATCC, clone E6.1) cells stimulated with anti-CD3/28/2; test: Jurkat IL-2 Assay; format: cell-based; details: Homo sapiens; IL-2 inhibition, Jurkat cells, 30 min compound then anti-CD3/28/2 stimulation for 24 hours; mean value if tested more than once; read-out: IC50
Summary of the method: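 Jurkat E6.1 T cells in RPMI/10% FBS (below passage 25) were preincubated with a compound dose-response for 30 min, then stimulated with soluble anti-CD3/28/2 for 24 h. IL-2 in the supernatant was measured by MSD immunoassay and viability by CellTiter-Glo luminescence. IC50 came from a 4-parameter fit, reported as ranges, with the mean used where tested repeatedly.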

[3] = Thermodynamic Solubility (Ts) Assay in Fasted State Simulated Intestinal Fluid (FaSSIF); format: physicochemical; details: thermodynamic from solid, FaSSIF pH 6.5, shake flask, 25° C., HPLC-UV
Method: The solubilities of various compounds of formula (I) were determined using a thermodynamic solubility assay. The thermodynamic solubility assay employed the shake flask method followed by HPLC-UV analysis. The following stepwise procedure was followed:
Samples of no less than 2.0 mg were weighed into the lower chambers of Whatman mini-uniprep vials (catalog number UN203NPUORG) and 450 μL of FaSSIF media (0.056% (w/v) lecithin, 0.161% (w/v) sodium taurocholate, 0.39% (w/v) monobasic potassium phosphate, 0.77% (w/v) potassium chloride, deionized H2O, pH 6.5) was added into each vial.
After the buffer was added, the filter pistons of the mini-uniprep vials were placed to the position of the liquid level to ensure the full contact of buffer and compound with the filter during the incubation.
The samples were then vortexed for 2 minutes, after which they were incubated at 25° C. with shaking (880 rpm) for 24 hours.
The samples were then centrifuged at 4000 rpm (20° C.) for 10 min.
The miniunipreps were then compressed to prepare filtrates, and the test concentration of the compound in the filtrate was determined using HPLC-UV (Waters XBridge C18, 4.6*100 mm column; mobile phase A: 0.1% TFA in H2O; mobile phase B: 0.1% TFA in acetonitrile). At least 5 UV standard solutions (e.g. amiodarone hydrochloride, carbamazepine, dexamethasone) were injected into the HPLC from low to high concentration subsequently followed by testing of the thermodynamic solubility supernatants in duplicate. The solubilities of the tested compounds are given in μg/mL.

full length MALT1, sequence (Q9UDY8 whole entry): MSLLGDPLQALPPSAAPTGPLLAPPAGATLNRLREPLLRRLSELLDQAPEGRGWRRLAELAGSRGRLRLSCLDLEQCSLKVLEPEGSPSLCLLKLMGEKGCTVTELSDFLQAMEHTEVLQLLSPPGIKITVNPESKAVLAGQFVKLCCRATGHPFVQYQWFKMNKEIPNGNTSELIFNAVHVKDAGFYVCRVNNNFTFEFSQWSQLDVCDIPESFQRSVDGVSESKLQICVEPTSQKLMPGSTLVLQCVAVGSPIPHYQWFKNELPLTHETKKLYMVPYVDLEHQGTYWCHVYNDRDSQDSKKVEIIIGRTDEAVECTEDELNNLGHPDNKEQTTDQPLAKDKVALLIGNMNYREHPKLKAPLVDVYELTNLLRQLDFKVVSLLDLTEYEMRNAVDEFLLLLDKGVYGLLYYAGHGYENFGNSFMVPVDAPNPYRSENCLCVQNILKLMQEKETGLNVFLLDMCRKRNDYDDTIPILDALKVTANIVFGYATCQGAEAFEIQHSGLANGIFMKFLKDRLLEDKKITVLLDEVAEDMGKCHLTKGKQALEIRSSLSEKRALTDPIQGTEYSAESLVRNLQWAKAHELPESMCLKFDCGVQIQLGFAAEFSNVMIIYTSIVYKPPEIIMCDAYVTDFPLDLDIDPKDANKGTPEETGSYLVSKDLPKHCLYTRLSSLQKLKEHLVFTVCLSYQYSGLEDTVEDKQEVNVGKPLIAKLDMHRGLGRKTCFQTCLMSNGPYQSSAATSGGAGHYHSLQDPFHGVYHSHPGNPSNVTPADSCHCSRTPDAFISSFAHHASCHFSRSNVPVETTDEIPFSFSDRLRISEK

Row | IC50 (full length MALT1) [µM] | fraction unbound at 4 h, 2 µM [1] | IC50 [2] [µM] | solubility at 24 h [3] [µg/mL] | Structure (SMILES)
1 | < 0.1 | > 0.2 | 0.1 to 1 | 250 to 1750 (≈ 435 to 3040 µM) | CO[C@@H](C)c1c(Nc2ccc([C@H](N(C)C(=O)C3CCS(=O)(=O)CC3)C(F)(F)F)cc2)cnc2nc(Cl)nn12 [Compound 1.1, N-[(1S)-1-[4-({2-chloro-7-[(1S)-1-methoxyethyl]-[1,2,4]triazolo[1,5-a]pyrimidin-6-yl}amino)phenyl]-2,2,2-trifluoroethyl]-N-methyl-1,1-dioxo-1λ^6-thiane-4-carboxamide]
2 | 0.1 to 1 | < 0.08 | 0.1 to 1 | < 250 | CO[C@@H](C)c1c(Nc2ccc([C@H](N(C)C(=O)C3CCC(F)(F)CC3)C(F)(F)F)cc2)cnc2nc(Cl)nn12 [Compound 1.8, N-[(1S)-1-[4-({2-chloro-7-[(1S)-1-methoxyethyl]-[1,2,4]triazolo[1,5-a]pyrimidin-6-yl}amino)phenyl]-2,2,2-trifluoroethyl]-4,4-difluoro-N-methylcyclohexane-1-carboxamide]
3 | 0.1 to 1 | > 0.2 | 0.1 to 1 | > 1750 | CO[C@@H](C)c1c(Nc2ccc([C@H](N(C)C(=O)C3CN(C(C)=O)C3)C(F)(F)F)cc2)cnc2nc(Cl)nn12 [Compound 1.15, 1-acetyl-N-[(1S)-1-[4-({2-chloro-7-[(1S)-1-methoxyethyl]-[1,2,4]triazolo[1,5-a]pyrimidin-6-yl}amino)phenyl]-2,2,2-trifluoroethyl]-N-methylazetidine-3-carboxamide]
4 | < 0.1 | < 0.08 | < 0.1 | < 250 | CC(C)c1c(Nc2ccc([C@H](N(C)C(=O)C3CCS(=O)(=O)CC3)C(F)(F)F)cc2)cnc2nc(Cl)nn12 [Compound 1.18, N-[(1S)-1-(4-{[2-chloro-7-(propan-2-yl)-[1,2,4]triazolo[1,5-a]pyrimidin-6-yl]amino}phenyl)-2,2,2-trifluoroethyl]-N-methyl-1,1-dioxo-1λ^6-thiane-4-carboxamide]
5 | < 0.1 | < 0.08 | < 0.1 | < 250 | CC(=O)N1CCC(C(=O)N(C)[C@@H](c2ccc(Nc3cnc4nc(Cl)nn4c3C(C)C)cc2)C(F)(F)F)CC1 [Compound 1.19, 1-acetyl-N-[(1S)-1-(4-{[2-chloro-7-(propan-2-yl)-[1,2,4]triazolo[1,5-a]pyrimidin-6-yl]amino}phenyl)-2,2,2-trifluoroethyl]-N-methylpiperidine-4-carboxamide]
6 | < 0.1 | > 0.2 | 0.1 to 1 | 250 to 1750 (≈ 440 to 3080 µM) | CO[C@@H](C)c1c(Nc2ccc([C@H](N(C)C(=O)C3CCN(C(C)=O)CC3)C(F)(F)F)cc2)cnc2nc(Cl)nn12 [Compound 3.1, 1-acetyl-N—((S)-1-(4-((2-chloro-7-((S)-1-methoxyethyl)-[1,2,4]triazolo[1,5-a]pyrimidin-6-yl)amino)phenyl)-2,2,2-trifluoroethyl)-N-methylpiperidine-4-carboxamide]
7 | < 0.1 | < 0.08 | 0.1 to 1 | < 250 | CO[C@@H](C)c1c(Nc2ccc([C@H](N(C)C(=O)C3CCN(S(C)(=O)=O)CC3)C(F)(F)F)cc2)cnc2nc(Cl)nn12 [Compound 3.4, N-[(1S)-1-[4-({2-chloro-7-[(1S)-1-methoxyethyl]-[1,2,4]triazolo[1,5-a]pyrimidin-6-yl}amino)phenyl]-2,2,2-trifluoroethyl]-1-methanesulfonyl-N-methylpiperidine-4-carboxamide]
8 | 0.1 to 1 | 0.08 to 0.2 | 0.1 to 1 |  | CO[C@@H](C)c1c(Nc2ccc([C@H](N(C)C(=O)C3CCN(S(C)(=O)=O)C3)C(F)(F)F)cc2)cnc2nc(Cl)nn12 (stereo partly drawn) [Compound 3.10, N-[(1S)-1-[4-({2-chloro-7-[(1S)-1-methoxyethyl]-[1,2,4]triazolo[1,5-a]pyrimidin-6-yl}amino)phenyl]-2,2,2-trifluoroethyl]-1-methanesulfonyl-N-methylpyrrolidine-3-carboxamide]
9 | < 0.1 | 0.08 to 0.2 | 0.1 to 1 | < 250 | CO[C@@H](C)c1c(Nc2ccc([C@H](N(C)C(=O)C3CCN(C(=O)C4CC4)CC3)C(F)(F)F)cc2)cnc2nc(Cl)nn12 [Compound 4.1, N—((S)-1-(4-((2-chloro-7-((S)-1-methoxyethyl)-[1,2,4]triazolo[1,5-a]pyrimidin-6-yl)amino)phenyl)-2,2,2-trifluoroethyl)-1-(cyclopropanecarbonyl)-N-methylpiperidine-4-carboxamide]
10 | 0.1 to 1 | > 0.2 | 0.1 to 1 | > 1750 | CO[C@@H](C)c1c(Nc2ccc([C@H](N(C)C(=O)C3CCN(C)CC3)C(F)(F)F)cc2)cnc2nc(Cl)nn12 [Compound 5.1, N—((S)-1-(4-((2-chloro-7-((S)-1-methoxyethyl)-[1,2,4]triazolo[1,5-a]pyrimidin-6-yl)amino)phenyl)-2,2,2-trifluoroethyl)-N,1-dimethylpiperidine-4-carboxamide]
11 | < 0.1 | 0.08 to 0.2 | 0.1 to 1 |  | CO[C@@H](C)c1c(Nc2ccc([C@H](N(C)C(=O)[C@H]3CC[C@H](C(N)=O)CC3)C(F)(F)F)cc2)cnc2nc(Cl)nn12 [Compound 8.1, (1r,4S)—N1-((S)-1-(4-((2-chloro-7-((S)-1-methoxyethyl)-[1,2,4]triazolo[1,5-a]pyrimidin-6-yl)amino)phenyl)-2,2,2-trifluoroethyl)-N1-methylcyclohexane-1,4-dicarboxamide]
